Laboratory results published in patent publication US12410231B2, “Natural killer cell products and methods” (Board of Regents of The University of Texas System, priority 2018, dated 2025).

Experiments:
[1] = system: DNAM1, NKP30, NKP44, NKP46, NKG2D, CD16, Fas, FasL; test: Immunophenotype of transduced NK cells (NK receptors, multiparameter flow cytometry); assay type: cell-based, human; conditions: rimiducid administration; data not shown
Source text: FIGS. 18A-18E Phenotype of iMC transduced NK cells. […] MFI or the percentages of positive cells were normalized according the average value of non-transduced NK cells. […] Two-way ANOVAs were used to compare groups. P<0.0001. […] Transgene expression as indicated by CD19 positive percentage. Representative flow plots are shown in FIG. 18D and dot plots for N=4 in FIG. 18E. Paired t tests were used to compare groups. **p<0.01.
Transduced NKs or T cells were stained with anti-CD56-APCcy7 (NK) or anti-CD3-Percep.Cy5 (T) and anti-CD19-BV421 for iMC or iRC9 transgene expression. For CAR-transduced cells, anti-CD34 QBEnd-10-PE (Abnova) was used to determine transduction efficiency. […] All antibodies were purchased from Biolegend except otherwise stated. Flow cytometry was performed using NovoCyte flow cytometer and the data were analyzed using ACEA NovoExpress software (ACEA Biosciences Inc, San Diego, CA).
NK cell activating receptors are essential for NK cell activation and recognition of targets. Upon infection or malignant transformation, these ligands typically upregulate and activate NK cells for specific attack and elimination of target cells. […]

[2] = system: IFN-γ; test: IFN-γ ELISA of supernatant, co-culture with k562; assay type: cell-based, human; conditions: rimiducid 0-100 nM
[3] = healthy volunteers; cited from earlier work
[4] = system: transduced NK cells; test: Safety switch activation in NK cells in vitro (Annexin V, 7AAD, CD19 loss); assay type: cell-based, human; conditions: 10 nM temsirolimus
Procedure: (§1) FIGS. 25A-25D: Safety switch in NKs. […] FIG. 25A: Annexin V staining was assessed by flow cytometry analysis. FIG. 25B: Temsirolimus at various concentration was administrated for 24 hrs. 7AAD staining was assessed by flow cytometry. Cells were first gated as CD56+CD19+ for transduced cells, CD56+ for NT non-transduced NK cells. […] 4 Four mice were applied administered 1 mg/kg temsirolimus i.p., whereas 5 mice were administrated with same volume vehicle. Before injection and 24 hrs. later, firefly luciferase BLI was determined for to measure NK presence in vivo (FIG. 25E). Mice were then euthanized. Spleens were analyzed for the presence of NK cells by flow cytometry. NK cells were identified as hCD45+mCD45− populations (FIG. 25F). Transduced NKcells were identified as hCD45+mCD45-hCD56+hCD19+ populations (FIG. 25G). Student t test was used to do comparisonscompare groups. ***P<0.001.
FIG. 14—Caspase-9 activation ablates DS NK cells. NK cells from three separate donors were transduced with recombinant retroviruses 1664 (iMC+iRC9) or 1531 (iC9+iRMC) and expanded. […] After 24 hours NK cells were assayed for presence of the CD19 marker cotransduced with the switches. […] MFI=Mean fluorescence intensity of CD19 in flow cytometry, indicating a proportional growth advantage of highly expressing cells. […]

[5] = system: iRC9.IL15.iMC-transduced NKs; test: Safety switch activation in vivo in NSG mice (BLI, spleen flow cytometry); parameters: species or system mouse
Procedure: as §1
To prevent potential uncontrolled expansion of the gene modified NK cells, as well as associated cytokine release syndrome (CRS) and GvHD, a suicide gene iRC9 was incorporated into the constructs. […] The suicide gene was also effective in vivo. Mice engrafted with THP-1 tumor received iRC9.IL15.iMC-transduced NKs labeled with oNL […] luciferase. Mice were then either treated with the dimerizer temsirolimus or vehicle control.

SMILES	surface NK cell receptor expression [1]	IFN-γ production at the co-culture supernatant [2]	safety [3]	apoptosis of transduced NK cells [4]	viability of non-transduced NK cells [4]	frequency of gene modified NK cells in the spleens ([5]; temsirolimus treated mice)	BLI signal of NK cells in vivo ([5]; within 24 hrs, temsirolimus 1 mg/kg i.p. vs vehicle)
CC[C@H](C(=O)N1CCCC[C@H]1C(=O)O[C@H](CCc1ccc(OC)c(OC)c1)c1cccc(OCC(=O)NCCNC(=O)COc2cccc([C@@H](CCc3ccc(OC)c(OC)c3)OC(=O)[C@@H]3CCCCN3C(=O)[C@@H](CC)c3cc(OC)c(OC)c(OC)c3)c2)c1)c1cc(OC)c(OC)c(OC)c1 (relative stereo) [Rimiducid, 2-Piperidinecarboxylic acid, 1-[(2S)-1-oxo-2-(3,4,5-trimethoxyphenyl)butyl]-, 1,2-ethanediyIbis[imino(2-oxo-2,1-ethanediyl)oxy-3,1-phenylene[(1R)-3-(3,4-dimethoxyphenyl)propylidene]] ester, [2S-[1(R*),2R*[S*[S*[1(R*),2R*]]]]]-(9Cl)]	did not increase surface NK cell receptor expression	dramatically increased IFN-γ production at the co-culture supernatant in a dose-dependent manner	proven safe in healthy volunteers	–	–	–	–
CO[C@H]1C[C@@H]2CC[C@@H](C)[C@@](O)(O2)C(=O)C(=O)N2CCCC[C@H]2C(=O)O[C@H]([C@H](C)C[C@@H]2CC[C@@H](OC(=O)C(C)(CO)CO)[C@H](OC)C2)CC(=O)[C@H](C)/C=C(\C)[C@@H](O)[C@@H](OC)C(=O)[C@H](C)C[C@H](C)/C=C/C=C/C=C/1C [temsirolimus]	–	–	–	induced apoptosis as early as 4 hrs	no effect	significantly reduced	dramatically reduced
